Test in all cases: Photodynamic inactivation of bacterial cell suspensions (CFU count after 532 nm laser irradiation)
What all share (type): cell-based

For assay [1], the system named is Escherichia coli DSM 8698. To be noted: in presence of blood serum or plasma in the treatment suspensions, 10 μM, 100 μM, 1 mM, 30 min dark incubation, about 100 J/cm^2. The protocol: (§1) The organisms used in our studies were three members of the microflora of wounds: Staphylococcus aureus DSM1104 (A TCC 25923), Gram-positive; Escherichia coli DSM 8698, Gram-negative; Pseudomonas aeruginosa DSM 1117 (ATCC 27853), Gram-negative. All strains were grown aerobically overnight at 37° C. in Tryptic Soy Broth (Merck KGaA Darmstadt, Germany). Cells were harvested by centrifugation and resuspended in sterile phosphate-buffered saline (PBS) or sterile PBS supplemented with 10% sterile horse blood serum (Oxoid), 10% human plasma or 10% human blood (both freshly obtained from donors), respectively. The final OD (Optical Density) at 600 nm, 1 cm in all cases was 0.03.
(§2) Aliquots (190 μl) of the bacterial suspensions were placed into sterile black 96 well plates with clear bottom (Costar® 3603, Corning Inc., USA). 10 μl of three different Safranin O stock solutions were added to obtain the final photosensitizer concentrations of 10 μM, 100 μM and 1 mM, respectively. The plates were incubated for 30 minutes in the dark at room temperature.
(§3) After incubation the samples were exposed to light from a laser Ceralas G2 (biolitec AG, Germany), 532 nm, power set to 0.5 W, irradiation time of […] via a light fiber from the bottom of the plate. The fluence rate for these settings was about 1.2 W/cm^2 (measured with Optometer P-9710, Gigahertz-Optik GmbH, Puchheim, Germany). With the irradiation time, the resulting energy fluence was about 100 J/cm^2.
(§4) Control wells contained no Safranin O and were not exposed to laser light. The control samples for dark toxicity were only exposed to Safranin O (end concentration of 1 mM) without any illumination.
(§5) After illumination the samples were removed from the wells of the plate, diluted with Tryptic Soy Broth and plated by using spiral plater Eddy Jet (iul Instruments, Barcelona, Spain) on Tryptic Soy agar plates. The numbers of colony-forming units (CFU/ml) were enumerated after adequate incubation by using colony counter Countermat Flash (iul Instruments, Barcelona, Spain).

Assay [2] relates to Pseudomonas aeruginosa DSM 1117 (ATCC 27853). To be noted: in presence of blood serum or plasma in the treatment suspensions, 10 μM, 100 μM, 1 mM, 30 min dark incubation, about 100 J/cm^2. How it is done:
as §1, §2, §3, §4, §5

For assay [3], the system named is Staphylococcus aureus DSM1104 (ATCC 25923). To be noted: cell suspensions in PBS and in PBS+10% horse blood serum, PBS+10% human plasma, 10 μM, 100 μM, 1 mM, 30 min dark incubation, about 100 J/cm^2. How it is done:
as §1, §2, §3, §4, §5

With `Cc1cc2nc3cc(C)c(N)cc3[n+](-c3ccccc3)c2cc1N.[Cl-]` [Safranin O], the “killing of cell suspensions by PDT treatment” value in assay [1] and in assay [2] was “sufficient killing” in each case. Moreover, the “killing effect by PDT treatment” value in assay [3] is “very good killing effect”.

Source of the values: patent publication US20050049228A1, “Antimicrobial photodynamic therapy compound and method of use” (CeramOptec Industries Inc., priority 2003, published 2005).
